Structures can show the parent of a compound that is named as a salt.

The target of one test is hNav1.7 (Homo sapiens (Human), UniProt Q15858). The test can be described thus: Tritiated sulfonamide competitive binding to membranes from cells expressing hNav1.7 and the β1 subunit.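 Further: Filter-bound radioactivity counted by liquid scintillation, nonspecific binding defined with excess unlabelled ligand, IC50 fitted to percent inhibition of specific binding.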
Chain of hNav1.7 (Q15858 other isoform, or with tags, fused parts or gaps): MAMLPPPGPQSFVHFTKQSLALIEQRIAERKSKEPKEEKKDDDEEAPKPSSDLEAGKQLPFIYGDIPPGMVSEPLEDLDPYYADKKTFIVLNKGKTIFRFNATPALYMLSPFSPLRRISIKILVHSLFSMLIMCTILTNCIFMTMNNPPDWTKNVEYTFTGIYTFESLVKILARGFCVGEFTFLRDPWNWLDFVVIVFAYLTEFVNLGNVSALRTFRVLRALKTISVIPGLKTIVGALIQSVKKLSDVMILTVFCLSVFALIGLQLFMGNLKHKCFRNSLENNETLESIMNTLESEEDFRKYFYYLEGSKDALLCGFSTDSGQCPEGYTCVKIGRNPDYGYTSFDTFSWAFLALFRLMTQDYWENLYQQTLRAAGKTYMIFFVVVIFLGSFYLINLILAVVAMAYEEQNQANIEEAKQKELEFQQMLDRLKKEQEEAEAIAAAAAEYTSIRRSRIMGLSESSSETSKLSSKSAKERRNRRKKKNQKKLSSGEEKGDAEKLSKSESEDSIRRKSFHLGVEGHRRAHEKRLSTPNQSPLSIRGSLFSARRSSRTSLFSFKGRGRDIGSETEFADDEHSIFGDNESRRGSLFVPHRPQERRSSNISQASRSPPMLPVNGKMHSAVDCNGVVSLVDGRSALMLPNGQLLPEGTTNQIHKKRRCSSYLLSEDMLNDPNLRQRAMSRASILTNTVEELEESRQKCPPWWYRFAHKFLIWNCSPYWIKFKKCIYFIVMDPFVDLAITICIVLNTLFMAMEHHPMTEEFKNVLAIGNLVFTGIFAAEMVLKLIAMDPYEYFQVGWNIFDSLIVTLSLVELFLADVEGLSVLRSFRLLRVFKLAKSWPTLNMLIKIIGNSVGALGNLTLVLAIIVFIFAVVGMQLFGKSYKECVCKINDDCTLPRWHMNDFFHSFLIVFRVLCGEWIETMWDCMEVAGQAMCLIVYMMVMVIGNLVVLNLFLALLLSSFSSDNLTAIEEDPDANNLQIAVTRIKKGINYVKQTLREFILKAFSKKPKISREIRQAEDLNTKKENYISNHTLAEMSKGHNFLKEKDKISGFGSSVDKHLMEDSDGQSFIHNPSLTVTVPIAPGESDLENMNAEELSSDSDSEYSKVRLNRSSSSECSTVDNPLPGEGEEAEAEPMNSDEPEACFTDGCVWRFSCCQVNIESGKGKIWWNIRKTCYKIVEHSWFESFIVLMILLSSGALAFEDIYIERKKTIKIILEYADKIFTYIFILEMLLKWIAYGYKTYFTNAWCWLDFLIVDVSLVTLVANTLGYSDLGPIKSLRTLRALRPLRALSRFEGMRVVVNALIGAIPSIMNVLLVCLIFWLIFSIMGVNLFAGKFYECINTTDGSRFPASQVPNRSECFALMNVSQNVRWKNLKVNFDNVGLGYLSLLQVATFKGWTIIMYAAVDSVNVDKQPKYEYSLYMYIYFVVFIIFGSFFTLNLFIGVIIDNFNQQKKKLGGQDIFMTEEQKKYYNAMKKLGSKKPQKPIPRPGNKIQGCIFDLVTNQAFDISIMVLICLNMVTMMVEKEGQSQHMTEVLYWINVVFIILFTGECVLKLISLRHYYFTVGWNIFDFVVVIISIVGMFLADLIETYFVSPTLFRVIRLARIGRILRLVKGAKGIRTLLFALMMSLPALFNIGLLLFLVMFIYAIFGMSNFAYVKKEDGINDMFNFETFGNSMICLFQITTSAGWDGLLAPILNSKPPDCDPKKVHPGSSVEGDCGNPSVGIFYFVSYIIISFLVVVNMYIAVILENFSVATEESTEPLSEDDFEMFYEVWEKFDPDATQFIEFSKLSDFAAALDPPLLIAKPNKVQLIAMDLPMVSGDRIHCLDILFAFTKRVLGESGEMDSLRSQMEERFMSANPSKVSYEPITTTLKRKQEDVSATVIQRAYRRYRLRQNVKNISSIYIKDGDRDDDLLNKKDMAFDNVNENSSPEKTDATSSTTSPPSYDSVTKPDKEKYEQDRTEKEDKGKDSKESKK
Chain of hNav1.7 (Q07699 19-218 partner): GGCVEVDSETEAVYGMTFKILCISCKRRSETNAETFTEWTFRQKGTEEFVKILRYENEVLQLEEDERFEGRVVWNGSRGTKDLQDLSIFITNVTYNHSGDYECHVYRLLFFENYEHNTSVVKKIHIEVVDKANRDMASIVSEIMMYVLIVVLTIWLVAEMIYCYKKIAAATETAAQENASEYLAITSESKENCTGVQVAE
Settings: not given
Regarding `CS(=O)(=O)NC(=O)c1cc(C2CC2)c(CN2CCC(Oc3cccc(C(F)(F)F)c3)CC2)cc1F` [Example 501, 5-cyclopropyl-2-fluoro-N-(methylsulfonyl)-4-((4-(3-(trifluoromethyl)phenoxy)piperidin-1-yl)methyl)benzamide, trifluoroacetic acid salt], the IC50 came out at 13.4 nM. In the case of `CC(C)(C)N1CCC[C@@H](Oc2cc(F)c(C(=O)NS(=O)(=O)C3CC3)cc2C2CC2)C1` [Example 539, (R)-4-((1-(tert-butyl)piperidin-3-yl)oxy)-5-cyclopropyl-N-(cyclopropylsulfonyl)-2-fluorobenzamide], the IC50 was 2280 nM.

Molecule `CS(=O)(=O)NC(=O)c1cc(C2CC2)c(CN2CCC(Oc3ccc(C(F)(F)F)cc3)CC2)cc1F` [Example 499, 5-cyclopropyl-2-fluoro-N-(methylsulfonyl)-4-((4-(4-(trifluoromethyl)phenoxy)piperidin-1-yl)methyl)benzamide] registered an IC50 of 13.6 nM. With `CS(=O)(=O)NC(=O)c1cc(C2CC2)c(O[C@@H]2CCCN(Cc3cccc4c3CNC4)C2)cc1F` [Example 14, (R)-5-cyclopropyl-2-fluoro-4-((1-(isoindolin-4-ylmethyl)piperidin-3-yl)oxy)-N-(methylsulfonyl)benzamide], the IC50 was 318 nM. In turn, `Cc1ccc(CN2CCC[C@@H](Oc3cc(F)c(C(=O)NS(=O)(=O)N4CCC4)cc3C3CC3)C2)cc1` [Example 33, (R)—N-(azetidin-1-ylsulfonyl)-5-cyclopropyl-2-4-fluoro-((1-(4-methylbenzyl)piperidin-3-yl)oxy)benzamide] showed an IC50 of 13.2 nM.

`CS(=O)(=O)NC(=O)c1cc(C2CC2)c(CN2CCC(Oc3ccccc3C(F)(F)F)CC2)cc1F` [Example 497, 5-cyclopropyl-2-fluoro-N-(methylsulfonyl)-4-((4-(2-(trifluoromethyl)phenoxy)piperidin-1-yl)methyl)benzamide] displayed an IC50 of 14.3 nM. For the molecule `CS(=O)(=O)NC(=O)c1cc(C2CC2)c(O[C@@H]2CCCN(Cc3ccc(F)cc3)C2)cc1F` [Example 20, (R)-5-cyclopropyl-2-fluoro-4-((1-(4-fluorobenzyl)piperidin-3-yl)oxy)-N-(methlysulfonyl)benzamide], the IC50 stood at 30.9 nM. Take `O=C(NS(=O)(=O)C1CC1)c1cc(C2CC2)c(CN2CCC(OCc3cc(Cl)cc(Cl)c3)CC2)cc1F` [Example 512, 5-cyclopropyl-N-(cyclopropylsulfonyl)-4-((4-((3,5-dichlorobenzyl)oxy)piperidin-1-yl)methyl)-2-fluorobenzamide, trifluoroacetic acid salt]: the IC50 was determined as 16.7 nM.

Still in this test, the particulars now being: read-out: Ligand Binding Assay; 100 pM [3H]compound, membranes with hNav1.7 and β1 subunit, 18 h, room temperature.
Take `CS(=O)(=O)NC(=O)c1cc(C2CC2)c(O[C@@H]2CCCN(c3ccc(C(F)(F)F)cn3)C2)cc1F` [Example 490, (R)-5-cyclopropyl-2-fluoro-N-(methylsulfonyl)-4-((1-(5-trifluoromethyl)pyridin-2-yl)piperidin-3-yl)oxy)benzamide, trifluoroacetic acid salt]: the IC50 turned out to be 42.3 nM. Turning to `CS(=O)(=O)NC(=O)c1cc(C2CC2)c(OCC2CCN(Cc3ccccc3)CC2)cc1F` [Example 87, 4-((1-Benzylpiperidin-4-yl)methoxy)-5-cyclopropyl-2-fluoro-N-(methylsulfonyl)benzamide], the IC50 worked out at 278 nM. The same measure, in the same setting: the result for `CC1(COc2cc(F)c(C(=O)NS(C)(=O)=O)cc2C2CC2)CN(C(c2ccccc2)c2ccccc2)C1` [Example 68, 4-((1-benzhydryl-3-methylazetidin-3-yl)methoxy)-5-cyclopropyl-2-fluoro-N-(methylsulfonyl)benzamide] reads 6.4 nM; that for `O=C(NS(=O)(=O)N1CC(F)C1)c1cc(C2CC2)c(OC2CC3(C2)CN(Cc2ccc(F)cc2Cl)C3)cc1F` [Example 321, 4-((2-(2-chloro-4-fluorobenzyl)-2-azaspiro[3.3]heptan-6-yl)oxy)-5-cyclopropyl-2-fluoro-N-((3-fluoroazetidin-1-yl)sulfonyl)benzamide], 191 nM.

Consider `O=C(NS(=O)(=O)CC1CC1)c1cc(C2CC2)c(OCC2CN(C(c3ccccc3)c3ccccc3)C2)cc1F` [Example 64, 4-((1-benzhydrylazetidin-3-yl)methoxy)-5-cyclopropyl-N-((cyclopropylmethyl)-sulfonyl)-2-fluorobenzamide], for which the IC50 was 4.7 nM. For the molecule `O=C(NS(=O)(=O)N1CCC1)c1cc(C2CC2)c(CN2CCO[C@H](Cc3cc(Cl)cc(Cl)c3)C2)cc1F` [Example 465, (R)—N-(azetidin-1-ylsulfonyl)-5-cyclopropyl-4-((2-(3,5-dichlorobenzyl)morpholino)methyl)-2-fluorobenzamide, trifluoroacetic acid salt], the IC50 is 12.8 nM.

In the case of `CS(=O)(=O)NC(=O)c1cc(C2CC2)c(CN2CCO[C@@H](Cc3ccc(Cl)c(Cl)c3)C2)cc1F` [Example 461, (S)-5-cyclopropyl-4-((2-(3,4-dichlorobenzyl)morpholino)methyl)-2-fluoro-N-(methylsulfonyl)benzamide], the IC50 stood at 42.1 nM. Turning to `CC(c1ccc(OC(F)(F)F)cc1)N1CCC(COc2cc(F)c(C(=O)NS(C)(=O)=O)cc2C2CC2)CC1` (stereo not drawn) [Example 156], the IC50 came to 21 nM. For `O=C(NS(=O)(=O)C1CC1)c1cc(C2CC2)c(CN2CCC(Oc3cccc(C(F)(F)F)c3)CC2)cc1F` [Example 502, trifluoroacetic acid salt], the IC50 worked out at 6.8 nM. Same read-out and setting: the result for `CC[C@@H](c1cc(Cl)cc(Cl)c1)N1CCC(COc2cc(F)c(C(=O)NS(C)(=O)=O)cc2C2CC2)CC1` [Example 241, (S)-5-cyclopropyl-4-((1-(1-(3,5-dichlorophenyl)propyl)piperidin-4-yl)methoxy)-2-fluoro-N-(methylsulfonyl)benzamide] reads 2.7 nM; that for `C[C@H](c1cc(F)cc(Cl)c1)N1CCC(COc2cc(F)c(C(=O)NS(C)(=O)=O)cc2C2CC2)CC1` (single isomer, unassigned) [Example 230], 4.4 nM. Same read-out and setting: under `CC1(COc2cc(F)c(C(=O)NS(=O)(=O)C3CC3)cc2C2CC2)CN(c2ncc(Cl)cc2F)C1` [Example 483, 4-((1-(5-chloro-3-fluoropyridin-2-yl)-3-methylazetidin-3-yl)methoxy)-5-cyclopropyl-N-(cyclopropylsulfonyl)-2-fluorobenzamide] stands 5.2 nM; under `CS(=O)(=O)NC(=O)c1cc(C2CC2)c(OCC2CCN([C@@H](c3cc(Cl)cc(Cl)c3)C(F)F)CC2)cc1F` (single isomer, unassigned) [Example 224], 4.5 nM. `C[C@H](c1cc(F)cc(C(F)(F)F)c1)N1CCC(C)(COc2cc(F)c(C(=O)NS(C)(=O)=O)cc2C2CC2)CC1` [Example 170, (R)-5-cyclopropyl-2-fluoro-4-((1-(1-(3-fluoro-5-(trifluoromethyl)phenyl)ethyl)-4-methylpiperidin-4-yl)methoxy)-N-(methylsulfonyl)benzamide]: the IC50 is 5 nM.

Consider `O=C(NS(=O)(=O)C1CC1)c1cc(C2CC2)c(OCC2CCN(Cc3cc(C(F)(F)F)cc(C4CC4)n3)CC2)cc1F` [Example 308], for which the IC50 was determined as 6 nM. Take `CS(=O)(=O)NC(=O)c1cc(C2CC2)c(OCC2(F)CCN(Cc3cc(C(F)(F)F)cc(C4CC4)n3)CC2)cc1F` [Example 596]: the IC50 is 59.9 nM. `CS(=O)(=O)NC(=O)c1cc(C2CC2)c(OCC2(F)CN(Cc3ccccc3)C2)cc1F` [Example 66, 4-((1-benzyl-3-fluoroazetidin-3-yl)methoxy)-5-cyclopropyl-2-fluoro-N-(methylsulfonyl)benzamide]: the IC50 was 91 nM. Regarding `CS(=O)(=O)NC(=O)c1cc(C2CC2)c(OCC2CCN(C(=O)c3ccc(Cl)cc3Cl)CC2)cc1F` [Example 257, 5-Cyclopropyl-4-((1-(2,4-dichlorobenzoyl)piperidin-4-yl)methoxy)-2-fluoro-N-(methylsulfonyl)benzamide], the IC50 came to 270 nM. Consider `C[C@H](c1ccc(Cl)c(Cl)c1)N1CCC(C)(COc2cc(F)c(C(=O)NS(C)(=O)=O)cc2C2CC2)CC1` (single isomer, unassigned) [Example 218], for which the IC50 was 7.8 nM. Same read-out and setting: under `CCS(=O)(=O)NC(=O)c1cc(C2CC2)c(OCC2CCN(Cc3ccc(Cl)cc3Cl)CC2)cc1F` [Example 213, 5-cyclopropyl-4-((1-(2,4-dichlorobenzyl)piperidin-4-yl)methoxy)-N-(ethylsulfonyl)-2-fluorobenzamide] stands 2.5 nM.

As for `CS(=O)(=O)NC(=O)c1cc(C2CC2)c(OCC2CCN(CC3(C(F)(F)F)CC3)CC2)cc1F` [Example 252, 5-cyclopropyl-2-fluoro-N-(methylsulfonyl)-4-((1-((1-(trifluoromethyl)cyclopropyl)methyl)piperidin-4-yl)methoxy)benzamide], the IC50 stood at 50 nM. `CS(=O)(=O)NC(=O)c1cc(C2CC2)c(CN2[C@@H]3CC[C@H]2C[C@@H](Oc2cc(Cl)cc(OC(F)(F)F)c2)C3)cc1F` [Example 560, 4-(((1R,3r,5S)-3-(3-chloro-5-(trifluoromethoxy)phenoxy)-8-azabicyclo[3.2.1]octan-8-yl)methyl)-5-cyclopropyl-2-fluoro-N-(methylsulfonyl)benzamide, trifluoroacetic acid salt]: the IC50 was 2.8 nM.

For the molecule `COC[C@@H](c1ccc(F)c(Cl)c1)N1CCC(COc2cc(F)c(C(=O)NS(C)(=O)=O)cc2C2CC2)CC1` (single isomer, unassigned) [Example 181], the IC50 was 11 nM. For the molecule `Cc1cc(F)ccc1S(=O)(=O)N1CCC(COc2cc(F)c(C(=O)NS(C)(=O)=O)cc2C2CC2)CC1` [Example 386, 5-cyclopropyl-2-fluoro-4-((1-((4-fluoro-2-methylphenyl)sulfonyl)piperidin-4-yl)methoxy)-N-(methylsulfonyl)benzamide], the IC50 worked out at 52.1 nM.

Consider `CC(C)Oc1ncc(CN2CC(COc3cc(F)c(C(=O)NS(C)(=O)=O)cc3C3CC3)C2)cc1Cl` [Example 83, 4-((1-((5-Chloro-6-isopropoxypyridin-3-yl)methyl)azetidin-3-yl)methoxy)-5-cyclopropyl-2-fluoro-N-(methylsulfonyl)benzamide], for which the IC50 amounted to 59 nM.

These data come from patent US9546164B2 (GENENTECH, INC., priority 2013, dated 2017).
